The values below come from patent publication US20240166669A1, “QUINAZOLINE AMINE DERIVATIVES AS KRAS INHIBITORS” (Nikang Therapeutics, Inc., priority 2021, published 2024).

Experiment [1] deals with T1, K-Ras G12D (Homo sapiens, UniProt P01116, G12D).
T1 construct: AGS (Cobioer, CBP60476) cell lines which harbor KRAS G12D mutation; host or cells: AGS
The experiment is described as follows: p-ERK Cellular 1-Plate Assay (Biological Example 3). Type of experiment: cell-based. The following applies: AGS cells (KRAS G12D), 3 h treatment, AlphaLISA p-ERK1/2, 1-plate; Biological Example 3 (values marked *); read-out: AGS PERK EC50. On the procedure:
(§1) The ability of the compound of Formula (IIA′), (II′), or (II) or a pharmaceutically acceptable salt thereof (test compound) to inhibit K-Ras G12D activity was tested using AGS (Cobioer, CBP60476) cell lines which harbor KRAS G12D mutation as described below.
AGS (Cobioer, CBP60476) were seeded in 384-well plates and cultured overnight (5,000 cells per well, 40 μl total volume). The following morning, cells were treated with test compound, with starting concentration at 10 μM and 3-fold dilution down to 0.5 nM for 3 h at […]. DMSO treatment served as control. pERK was then measured using AlphaLISA SureFire Ultra p-ERK/2 (Thr202/Tyr204) Assay Kit (Perkin Elmer, cat #ALSU-PERK) following the manufacturer's instruction as follows.
Briefly, the culture medium was removed and 10 μl 1× lysis buffer was added to each well, followed by 10 minutes incubation on a plate shaker at room temperature. Acceptor mixture was prepared according to manufacturer's instruction. 5 μl acceptor mixture was added to the cell lysate and the plate was wrapped with foil, spun at 500 rpm for 10s and incubated at RT for 60 min. Donor mixture was prepared under subdued light. 5 μl donor mixture was added to the cell lysate and the plate was spun at 500 rpm for 10s and incubated at RT for another 60 min. in the dark.
On the technique in general: In Alpha technology, singlet oxygen from a donor bead excites a nearby acceptor bead.

In experiment [2] the target is T1, K-Ras G12D. Kind of experiment: p-ERK Cellular 2-Plate Assay (Biological Example 2). Type of experiment: cell-based. The following applies: AGS cells (KRAS G12D), 3 h treatment, AlphaLISA p-ERK1/2, 2-plate; Biological Example 2 (unmarked values); read-out: AGS PERK EC50. On the procedure: as §1
AGS (Cobioer, CBP60476) were seeded in 384-well plates and cultured overnight (10.000 cells per well 40 μl total volume). The following morning, cells were treated with test compound, with staring concentration at 10 μM and 3-fold dilution down to 0.5 nM for 3 h at 37° C., DMSO treatment served as control. p-ERK was then measured using AlphaLISA SureFire Ultra p-ERK1/2 (Thr202/Tyr204) Assay Kit (Perkin Elmer, cat #ALSU-PERK) following the manufacturer's instruction as follows.
Briefly, the culture medium was removed and 20 μl 1× lysis buffer was added to each well, followed by 30 minutes incubation on a plate shaker at room temperature. Then 10 μl of lysate was transferred to a white 384-well plate. Acceptor mixture was prepared according to manufacturer's instruction. 5 μl acceptor mixture was added to the cell lysate and the plate was wrapped with foil, spun at 500 rpm for 10 s, and incubated at RT for 60 min. Donor mixture was prepared under subdued light. 5 μl donor mixture was added to the cell lysate and the plate was spun at 500 rpm for 10s and incubated at RT for another 60 min. in the dark. Signal was then measured on a EnVision 2105 multimode plate reader. Percentage inhibition was calculated with DMSO treatment as 100% of signal, and IC50 was calculated by XLfit 5.5.x.

T1 sequence (P01116 1-188 isoform P01116-2 G12D): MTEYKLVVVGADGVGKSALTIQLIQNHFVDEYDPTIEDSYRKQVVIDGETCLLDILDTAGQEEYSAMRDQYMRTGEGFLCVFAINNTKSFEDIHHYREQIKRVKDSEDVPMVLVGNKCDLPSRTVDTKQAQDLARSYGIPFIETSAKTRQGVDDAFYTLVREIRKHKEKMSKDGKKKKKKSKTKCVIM

Broadly, the EC50 is the concentration at which the effect is half-maximal. On to `C#Cc1c(F)ccc2cccc(-c3ncc4c(N5C[C@H]6CC[C@@H](C5)N6)nc(OCC56CCCCN5CC(=C)C6)nc4c3F)c12` (stereo partly drawn) [Example 51, 4-((1R,5S)-3,8-diazabicyclo[3.2.1]octan-3-yl)-7-(8-ethynyl-7-fluoronaphthalen-1-yl)-8-fluoro-2-((2-methylenehexahydroindolizin-8a(1H)-yl)methoxy)pyrido[4,3-d]pyrimidine], for which the EC50 on K-Ras G12D [1] is 836 nM.

Regarding `C#Cc1c(F)ccc2cc(O)cc(-c3ncc4c(N5C[C@H]6CC[C@@H](C5)N6)nc(OCC56CCCCN5CC(=C)C6)nc4c3F)c12` (stereo partly drawn) [Example 43, 4-(4-((1R,5S)-3,8-diazabicyclo[3.2.1]octan-3-yl)-8-fluoro-2-((2-methylenehexahydroindolizin-8a(1H)-yl)methoxy)pyrido[4,3-d]pyrimidin-7-yl)-5-ethynyl-6-fluoronaphthalen-2-ol], on K-Ras G12D [1], the EC50 was 18 nM.

As to `C#Cc1c(F)ccc2cc(O)cc(-c3ncc4c(N5C[C@H]6CC[C@H](N6)C5C)nc(OCC56CCCN5CC(=C)C6)nc4c3F)c12` (stereo partly drawn) [Example 54, 5-ethynyl-6-fluoro-4-(8-fluoro-4-((1S,5R)-2-methyl-3,8-diazabicyclo[3.2.1]octan-3-yl)-2-((2-methylene-tetrahydro-1H-pyrrolizin-7a(5H)-yl)methoxy)-pyrido[4,3-d]pyrimidin-7-yl)naphthalen-2-ol], the EC50 at K-Ras G12D [1] worked out at 1.4 nM.

As for `C#Cc1c(F)ccc2cccc(-c3ncc4c(N5C[C@H]6CC[C@@H](C5)N6)nc(OCC56CCCCCN5CC(=C)C6)nc4c3F)c12` (stereo partly drawn) [Example 52, 4-((1R,5S)-3,8-diazabicyclo[3.2.1]octan-3-yl)-7-(8-ethynyl-7-fluoronaphthalen-1-yl)-8-fluoro-2-((2-methylenehexahydro-1H-pyrrolo[1,2-a]azepin-9a(5H)-yl)methoxy)pyrido[4,3-d]pyrimidine], the half-maximal effective concentration (EC50) at K-Ras G12D [1] is over 100 nM.

`C#Cc1c(F)ccc2cc(O)cc(-c3ncc4c(N5C[C@H]6CC[C@@H](C5)N6)nc(OC[C@@H]5CC(=C)CN5C)nc4c3F)c12` [Example 46, 4-(4-((1R,5S)-3,8-diazabicyclo[3.2.1]octan-3-yl)-8-fluoro-2-(((S)-1-methyl-4-methylenepyrrolidin-2-yl)methoxy)pyrido[4,3-d]pyrimidin-7-yl)-5-ethynyl-6-fluoronaphthalen-2-ol]: the EC50 at K-Ras G12D [1] is 5.3 nM.

On to `C#Cc1cccc2cc(O)cc(-c3ncc4c(N5C[C@H]6CC[C@@H](C5)N6)nc(OCC56CCCN5CC(=CC(F)F)C6)nc4c3F)c12` (stereo partly drawn) [Example 3, 4-(4-((1R,5S)-3,8-diazabicyclo[3.2.1]octan-3-yl)-2-((2-(2,2-difluoroethylidene)-tetrahydro-1H-pyrrolizin-7a(5H)-yl)methoxy)-8-fluoropyrido[4,3-d]pyrimidin-7-yl)-5-ethynylnaphthalen-2-ol], for which, at K-Ras G12D [2], the 50% effective concentration (EC50) turned out to be 1.5 nM.

Consider `C#Cc1cccc2cc(O)cc(-c3ncc4c(N5CC6CC7(CC7)C(C5)N6)nc(OCC56CCCN5CCC6)nc4c3F)c12` (centres unmarked) [Example 53, 5-ethynyl-4-(8-fluoro-4-(3,8-diazaspiro[bicyclo[3.2.1]octane-6,1′-cyclopropan]-3-yl)-2-((tetrahydro-1H-pyrrolizin-7a(5H)-yl)methoxy)pyrido[4,3-d]pyrimidin-7-yl)naphthalen-2-ol], for which the EC50 on K-Ras G12D [2] was 266 nM.

`C#Cc1cccc2cc(O)cc(-c3ncc4c(N5CC6CCC(C5)N6)nc(OCC56CCCN5Cc5cc(F)ccc56)nc4c3F)c12` (centres unmarked) [Example 25, 4-(4-(3,8-diazabicyclo[3.2.1]octan-3-yl)-8-fluoro-2-((7-fluoro-2,3-dihydro-1H-pyrrolo[2,1-a]isoindol-9b(5H)-yl)-methoxy)pyrido[4,3-d]pyrimidin-7-yl)-5-ethynylnaphthalen-2-ol]: at K-Ras G12D [2], the EC50 was determined as 3 nM.

For the compound `C#Cc1cccc2cc(O)cc(-c3ncc4c(N5C[C@H]6CC[C@@H](C5)N6)nc(OCC56CCCN5c5ccccc5C6)nc4c3F)c12` (stereo partly drawn) [Example 5, 4-(4-((1R,5S)-3,8-diazabicyclo[3.2.1]octan-3-yl)-2-((2,3-dihydro-1H-pyrrolo[1,2-a]-indol-9a(9H)-yl)methoxy)-8-fluoropyrido[4,3-d]pyrimidin-7-yl)-5-ethynylnaphthalen-2-ol], the EC50 at K-Ras G12D [2] was determined as 320 nM.

Regarding `C#Cc1cccc2cc(O)cc(-c3ncc4c(N5CC6CCC(C5)N6)nc(OCC56CCCN5Cc5ccncc56)nc4c3F)c12` (centres unmarked) [Example 32, 4-(4-(3,8-diazabicyclo[3.2.1]octan-3-yl)-2-((8,9-dihydro-5H-pyrido[3,4-a]pyrrolizin-9a(7H)-yl)methoxy)-8-fluoropyrido[4,3-d]pyrimidin-7-yl)-5-ethynylnaphthalen-2-ol], at K-Ras G12D [2], the EC50 was 6 nM.

For `C#Cc1c(F)ccc2cccc(-c3ncc4c(N5C[C@H]6CC[C@@H](C5)N6)nc(OCC56CCCN5CC(=CC)C6)nc4c3F)c12` (stereo partly drawn) [Example 48, 4-((1R,5S)-3,8-diazabicyclo[3.2.1]octan-3-yl)-2-((2-ethylidenetetrahydro-1H-pyrrolizin-7a(5H)-yl)methoxy)-7-(8-ethynyl-7-fluoronaphthalen-1-yl)-8-fluoropyrido[4,3-d]pyrimidine], on K-Ras G12D [2], the EC50 came out at 33 nM.

Turning to `C#Cc1c(F)ccc2cc(O)cc(-c3ncc4c(N5C[C@H]6CC[C@@H](C5)N6)nc(OCC56CCCCCN5CC(=C)C6)nc4c3F)c12` (stereo partly drawn) [Example 44, 4-(4-((1R,5S)-3,8-diazabicyclo[3.2.1]octan-3-yl)-8-fluoro-2-((2-methylenehexahydro-1H-pyrrolo[1,2-a]azepin-9a(5H)-yl)methoxy)pyrido[4,3-d]pyrimidin-7-yl)-5-ethynyl-6-fluoronaphthalen-2-ol], on K-Ras G12D [1], the EC50 is over 100 nM.

With `C#Cc1cccc2cc(O)cc(-c3ncc4c(N5C[C@H]6CC[C@@H](C5)N6)nc(OCC56CCCN5Cc5c(OC)cccc56)nc4c3F)c12` (stereo partly drawn) [Example 29, 4-(4-((1R,5S)-3,8-diazabicyclo-[3.2.1]octan-3-yl)-8-fluoro-2-((6-methoxy-2,3-dihydro-1H-pyrrolo[2,1-a]-isoindol-9b(5H)-yl)methoxy)-pyrido[4,3-d]-pyrimidin-7-yl)-5-ethynylnaphthalen-2-ol], the EC50 at K-Ras G12D [2] was found to be 2 nM.

Consider `C#Cc1c(F)ccc2cccc(-c3c(Cl)cc4c(N5C[C@H]6CC[C@@H](C5)N6)nc(OCC56CCCN5CC(=C)C6)nc4c3F)c12` (stereo partly drawn) [Example 55, 4-((1R,5S)-3,8-diazabicyclo[3.2.1]octan-3-yl)-6-chloro-7-(8-ethynyl-7-fluoronaphthalen-1-yl)-8-fluoro-2-((2-methylenetetrahydro-1H-pyrrolizin-7a(5H)-yl)methoxy)quinazoline], for which the EC50 at K-Ras G12D [2] is over 100 nM.

Take `C#Cc1c(F)ccc2cc(O)cc(-c3ncc4c(N5C[C@H]6CC[C@@H](C5)N6)nc(OC[C@@]56CC7COc8ccccc8C7N5C[C@@H](F)C6)nc4c3F)c12` (stereo partly drawn) [Example 41, 4-(4-((1R,5S)-3,8-diazabicyclo[3.2.1]octan-3-yl)-8-fluoro-2-(((9S)-9-fluoro-6a,9,10,11a-tetrahydro-6H,7H-chromeno[3,4-b]pyrrolizin-7a(8H)-yl)methoxy)pyrido[4,3-d]pyrimidin-7-yl)-5-ethynyl-6-fluoronaphthalen-2-ol]: the EC50 at K-Ras G12D [2] was over 100 nM.

On to `C#Cc1cccc2cc(O)cc(-c3ncc4c(N5C[C@H]6CC[C@@H](C5)N6)nc(OCC56CCCN5Cc5c6cnn5C)nc4c3F)c12` (stereo partly drawn) [Example 36, 4-(4-((1R,5S)-3,8-diazabicyclo[3.2.1]octan-3-yl)-8-fluoro-2-((1-methyl-1,5,6,8-tetrahydropyrazolo[4,3-a]pyrrolizin-3b(4H)-yl)methoxy)pyrido[4,3-d]pyrimidin-7-yl)-5-ethynylnaphthalen-2-ol], for which the 50% effective concentration (EC50) on K-Ras G12D [2] turned out to be 5.2 nM.

Consider `C#Cc1cccc2cc(O)cc(-c3ncc4c(N5CC6CCC(C5)N6)nc(OCC56CCCN5Cc5ccc(F)cc56)nc4c3F)c12` (centres unmarked) [Example 26, 4-(4-(3,8-diazabicyclo[3.2.1]octan-3-yl)-8-fluoro-2-((8-fluoro-2,3-dihydro-1H-pyrrolo[2,1-a]isoindol-9b(5H)-yl)-methoxy)pyrido[4,3-d]pyrimidin-7-yl)-5-ethynylnaphthalen-2-ol], for which the EC50 on K-Ras G12D [2] worked out at 7 nM.
